Like-named read-outs stand apart in the source and are kept apart here. No end group written: not given here.
What was measured:
[1] = molecular target: DR1 (DRB1*0101) (Homo sapiens, UniProt P01903+P01911, A100R/D57E/F55L/F60I/F76Y/I96L/L162R/M171V/P40L/Q125E/R42F/V115G/Y59C); experiment: biochemical; assay type: binding
[2] = molecular target: DR7 (DRB1*0701) (Homo sapiens, UniProt P01903+P01911, A100R/A102G/A103Q/D57E/D86V/E43K/F76Y/K127E/L162R/M171V/P40G/Q125H/Q99D/R33Q/R42Y/R54Q/S133A/S66F/T210M/V115G/Y107V/Y59L/Y89S); experiment: biochemical; assay type: binding
[3] = molecular target: DRB5*0101 (Homo sapiens, UniProt P01903+Q30154); experiment: biochemical
[4] = molecular target: DRB1*0802 (Homo sapiens, UniProt P01903+P01911, A100R/A103L/A169T/F76Y/H45Y/I96F/K41T/L162R/M171V/P40S/Q125H/Q178H/Q39Y/Q99D/R218S/R42G/S66Y/V115G/W38E); experiment: biochemical; assay type: binding
[5] = molecular target: DRB1*0901 (Homo sapiens, UniProt P01903+P01911, A100R/A103E/D57H/D86V/F55Y/F60I/F76Y/I96F/K127E/L162R/M171V/P40D/Q125H/Q99R/R33Q/R42F/S133A/S66N/T210M/V115G/W38K/Y107V/Y59G/Y89S); experiment: biochemical; assay type: binding
[6] = molecular target: DRB1*1501 (Homo sapiens, UniProt P01903+P01911); experiment: biochemical; assay type: binding
[7] = molecular target: DRB1*1302 (Homo sapiens, UniProt P01903+P01911, A100E/A169T/K41T/L162R/M171V/P40S/Q125H/Q178H/Q39Y/Q99D/R42S/S66N/T262R/V115G/W38E/Y61H); experiment: biochemical; assay type: binding
DRB1*1302, sequence (P01903 26-254 limits assumed, other chains not shown): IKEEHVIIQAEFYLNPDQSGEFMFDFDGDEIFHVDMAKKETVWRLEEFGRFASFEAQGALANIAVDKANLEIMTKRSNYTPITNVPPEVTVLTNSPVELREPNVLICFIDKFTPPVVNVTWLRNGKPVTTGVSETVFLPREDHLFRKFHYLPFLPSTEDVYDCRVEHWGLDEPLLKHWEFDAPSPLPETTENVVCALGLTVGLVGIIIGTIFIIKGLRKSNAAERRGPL

[8] = molecular target: DRB1*0405 (Homo sapiens, UniProt P01903+P01911, A100R/A169T/D86S/F76Y/I96L/K127E/L162R/M171V/N62H/P40V/Q125Y/R42H/S133A/S149N/S66Y/V115G/V209L/W38E); experiment: biochemical; assay type: binding
[9] = molecular target: DRB1*1101 (Homo sapiens, UniProt P01903+P01911, A100R/A169T/A87E/I96F/K41T/L162R/M171V/P40S/Q125H/Q178H/Q39Y/Q99D/R42S/S66Y/T262R/V115G/W38E); experiment: biochemical
DRB1*1101, sequence (P01903 26-254 limits assumed, other chains not shown): as above

[10] = molecular target: DRB4*0101 (Homo sapiens, UniProt P01903+P13762, G164S); experiment: biochemical; assay type: binding
[11] = molecular target: DR4w4 (DRB1*0401) (Homo sapiens, UniProt P01903+P01911, A100K/A169T/F76Y/I96L/K127E/L162R/M171V/N62H/P40V/Q125Y/R42H/S133A/S149N/S66Y/V115G/V209L/W38E); experiment: biochemical; assay type: binding
[12] = molecular target: HLA-A1 (A*0101) (Homo sapiens, UniProt P04439, A114D/A174V/A182V/D101N/D185E/E176A/E190D/L180R/Q94H/R68K/S129P/T187R/V100A/V91M/W191G); experiment: biochemical; assay type: binding
[13] = molecular target: A2.1 HLA molecules (Homo sapiens, UniProt P04439, D140Y/D185E/D98H/E176V/E277Q/G131W/G231S/I119V/I121R/I166T/I218V/L300P/L318F/N151K/N90K/P208A/P217A/Q86G/Q94H/R138H/R169H/T345S); assay type: binding; design: A*0201 / A2.1 Binding / A2 Bind. / A2 / A2.1 (binding capacity): scale not given here

| Compound | IC50 [1] [µM] | IC50 [2] [µM] | IC50 [3] [µM] | IC50 [4] [µM] | IC50 [5] [µM] | IC50 [6] [µM] | IC50 [7] [µM] | IC50 [8] [µM] | IC50 [9] [µM] | IC50 ([3]; Binding affinity DRB5 *0101) [µM] | IC50 [10] [µM] | IC50 ([9]; Binding affinity DRB1 *1101) [µM] | IC50 [11] [µM] | A1 [12] | A2 Bind. [13] |
| --- | --- | --- | --- | --- | --- | --- | --- | --- | --- | --- | --- | --- | --- | --- | --- |
| IKFFQGSVISFVNSQ [Peptide 89.0136] | > 20 | > 20 | 5.5 | > 20 | > 20 | > 20 | 0.011 | > 20 | > 20 |  |  |  |  |  |  |
| FIHFIQGAVISFVNS [Peptide 89.0036] |  |  |  | 3.42 | 0.137 | 0.677 | 0.097 | 1.22 |  | 6.02 | 0.13 | 4.33 |  |  |  |
| PEWIEQQTVLQHSFD [Peptide 89.0105] |  | 6.21 |  |  |  | 11.3 | 1.31 | 5.59 |  |  | 0.98 |  |  |  |  |
| NTEVETQQMLQVEGR [Peptide 89.0002] | 4.98 | 1.85 |  | > 20 | > 20 | 15.5 | 2.33 | > 20 |  | > 20 |  | > 20 |  |  |  |
| MVQVEEQQTTLSCNG [Peptide 89.0040] |  | > 20 |  | > 20 | > 20 | > 20 | > 20 | > 20 |  | > 20 |  | > 20 | 0.34 |  |  |
| CSCC[C@H](NC(=O)[C@H](Cc1ccc(O)cc1)NC(=O)[C@H](Cc1ccc(O)cc1)NC(=O)[C@@H](NC(=O)[C@H](CO)NC(=O)[C@H](CC(=O)O)NC(=O)[C@H](Cc1c[nH]c2ccccc12)NC(=O)[C@H](C)NC(=O)[C@@H](N)C(C)C)C(C)C)C(=O)N[C@H](C(=O)N[C@@H](CC(=O)O)C(=O)N[C@@H](C)C(=O)NCC(=O)N[C@H](C(=O)N[C@@H](Cc1c[nH]c2ccccc12)C(=O)O)[C@@H](C)O)[C@@H](C)O [Peptide 1601.10] | 7.86 |  |  | > 20 | 0.587 | > 20 | > 20 | 7.43 |  | > 20 |  | > 20 | 1.66 |  |  |
| DSDIAYYYAQLADSN [Peptide 89.0071] | 0.198 | 4.13 |  |  | 2.34 | 0.013 | > 20 | 6.03 |  | > 20 | 0.978 | 9.14 |  |  |  |
| YLVCGERGFFYTKPT [Peptide 9000.0079] |  |  |  | > 54.4 |  |  |  | > 30.1 |  |  |  |  | > 20.5 |  |  |
| PPLLITTNINPMLDA [Peptide 89.0139] | 1.22 | 7.54 |  | 7.65 | > 20 | 4.78 | > 20 | 3.39 | 7.37 |  |  |  | 0.623 |  |  |
| FAGIVTKLPTANNTT [Peptide 89.0175] |  | 1.28 |  | 1.56 | > 20 | 2.55 |  | 5.87 |  |  | 1.2 | 7.63 |  |  |  |
| NCILLYGPANTGKSY [Peptide 89.0087] | 0.11 | > 20 |  | 13.5 | > 20 | 0.066 |  | 7.34 |  | 6.46 |  | 8.05 | 0.28 |  |  |
| NTEVETQQMVQVEEQ [Peptide 89.0039] | 2.63 | > 20 |  |  | > 20 | > 20 | > 20 | > 20 |  | > 20 |  | > 20 | > 20 |  |  |
| FLSYFKLFLQGTPKH [Peptide 89.0132] | > 20 | > 20 |  | > 20 |  | > 20 | 1.3 | 7.81 |  | > 20 | 0.0087 | > 20 |  |  |  |
| NTEVETQQMVQQVES [Peptide 89.0059] | > 20 | > 20 |  | > 20 | > 20 | > 20 |  | > 20 |  | > 20 |  | > 20 | > 20 |  |  |
| TPEWIDRLTVLQHSF [Peptide 89.0069] | 14.6 | 5.21 |  | 0.275 | > 20 | 3.83 | 8.86 | 0.987 |  | > 20 | 0.122 |  |  |  |  |
| PMCMMIEPPKLRSTA [Peptide 90.0034] | 0.037 | 0.369 |  | 4.33 | 11.3 | 3.34 | 1.58 | 2.11 |  | 0.271 |  | 2.04 | 0.366 |  |  |

| Compound | IC50 [1] [µM] | IC50 [2] [µM] | IC50 [3] [µM] | IC50 [4] [µM] | IC50 [5] [µM] | IC50 [6] [µM] | IC50 [7] [µM] | IC50 [8] [µM] | IC50 [9] [µM] | IC50 ([3]; Binding affinity DRB5 *0101) [µM] | IC50 [10] [µM] | IC50 ([9]; Binding affinity DRB1 *1101) [µM] | IC50 [11] [µM] | A1 [12] | A2 Bind. [13] |
| --- | --- | --- | --- | --- | --- | --- | --- | --- | --- | --- | --- | --- | --- | --- | --- |
| NGWFYVEAVVEKKTG [Peptide 90.0029] | 0.219 | 0.307 |  | 6.4 | 0.955 | > 20 | 5.49 | 0.027 |  |  |  | 2.74 | 0.031 |  |  |
| TNCMLIQPPKLRSTA [89,0046] | 0.017 |  |  |  |  |  |  | 3.22 |  |  |  |  | 1.86 |  |  |
| CC(C)C[C@H](NC(=O)[C@H](CC(C)C)NC(=O)[C@@H]1CCCN1C(=O)[C@@H](N)CC(N)=O)C(=O)NCC(=O)N[C@@H](C)C(=O)N[C@@H](C)C(=O)N[C@H](C(=O)N1CCC[C@H]1C(=O)N[C@H](C(=O)NCC(=O)N[C@@H](CC(N)=O)C(=O)N[C@@H](CC(N)=O)C(=O)N[C@@H](CCCCN)C(=O)N[C@@H](CCCNC(=N)N)C(=O)O)[C@@H](C)O)[C@@H](C)O [Peptide 89.0165] | 0.655 | > 20 |  | > 20 | 9.38 |  | > 20 | 8.25 |  | > 20 |  | > 20 | 1.24 |  |  |
| WCIIGMGVTPSVAEG [Peptide 89.0097] | > 20 | 3.55 |  | > 20 | > 20 | > 20 | 2.09 | > 20 |  | > 20 |  | > 20 | > 20 |  |  |
| LLYKLDIVSI |  |  |  |  |  |  |  |  |  |  |  |  |  | 0.0245 | 0.0245 |
| DCKWGVLILALLRYK [Peptide 89.0026] |  | 7.36 |  | 1.8 | 1 | 0.41 | 0.786 | 1.34 |  | 1.12 |  | 0.389 | 1.09 |  |  |
| LMQLKCPPLLITSNI [Peptide 89.0057] | 0.214 |  |  | 2.8 | 5.08 | 0.16 | 0.123 | 1.48 |  | > 20 | 0.068 |  |  |  |  |
| IMIVGGLVGL |  |  |  |  |  |  |  |  |  |  |  |  |  | 0.0252 | 0.0252 |
| GLLECCARCLV |  |  |  |  |  |  |  |  |  |  |  |  |  | 0.0515 | 0.0515 |
| PMAVSKAKACQAIEL [Peptide 90.0013] | 0.089 |  |  |  |  | 16.6 | 0.535 | > 20 |  | 12.8 | 1.59 | 1.55 |  |  |  |
| TLQCKIKQII |  |  |  |  |  |  |  |  |  |  |  |  |  | 0.0200 | 0.0200 |
| LLIAARIVEL |  |  |  |  |  |  |  |  |  |  |  |  |  | 0.1550 | 0.1550 |
| FLAIIWVDL |  |  |  |  |  |  |  |  |  |  |  |  |  | 0.0233 | 0.0233 |
| FIMIVGGLV |  |  |  |  |  |  |  |  |  |  |  |  |  | 0.0131 | 0.0131 |
| HMLQLTVWGI |  |  |  |  |  |  |  |  |  |  |  |  |  | 0.0677 | 0.0677 |
| RLTVSKLMSQLLNIP [89,0100] | 10.5 |  |  |  |  |  |  | > 20 |  |  |  |  | > 20 |  |  |

— patent publication US9340577B2, “HLA binding motifs and peptides and their uses” (priority 1992, dated 2016)
